Columns and labels:
normal C57BL/6 mice = test: Hyperinsulinemic-euglycemic clamp after third-ventricle TGF-β1; format: in vivo
Source text: Brain TGF-β excess increases hepatic glucose production: In physiology, blood glucose levels are balanced by glucose uptake in metabolic tissues (such as muscles) and glucose production in the liver. A hyperinsulinemic-euglycemic clamp was employed to analyze if any of these metabolic processes was relevant to the pro-diabetic effect of brain TGF-β excess. In the experiment, normal C57BL/6 mice were pre-implanted with a catheter into the jugular vein and also a cannula into the hypothalamic third ventricle. Following surgical recovery, overnight-fasted mice were injected with TGF-β1 (4 ng) using the same protocol as described in FIG. 1e, and were subjected to the clamp procedure. During the clamp period, blood glucose concentrations were maintained at approximate 120-130 mg/dl, with steady insulin infusion (4 mU kg^−1 min^−1) together with various rates of 20% glucose infusion to maintain euglycemia. […] While the basal blood insulin concentrations in TGF-β-injected mice were higher which indicated insulin resistance, constant insulin infusion in the clamp elevated the blood insulin concentrations of these mice and controls to similar levels. […] Blood glucagon concentrations were similar between TGF-β1-treated mice and controls. Therefore, the brain-liver axis mediates the pro-diabetic effect of brain TGF-β excess.
Hyperinsulinemic-euglycemic clamp. Mice that were pre-implanted with cannula in the third ventricle were anesthetized, and a catheter was inserted into the right jugular vein and crossed over from the underneath and out the back of the neck. Following surgical recovery, overnight-fasted mice were injected with TGF-β1 (4 ng) vs. vehicle, once at the beginning of fasting and the other in the following morning at four hours prior to clamp. Conscious mice were then subjected to euglycemic clamp, with the blood glucose concentrations maintained at 120-130 mg/dl for four hours, followed by steady-state human insulin infusion (4 mU kg−1 min−1) together with infusion of 20% glucose at variable rates to maintain euglycemia. During the final 1 hour of the clamp, [3-^3H] glucose and 2-deoxy-D-[1-^14C] glucose (PerkinElmer) infusions were used. Blood samples were collected from tail vein. At the end of the procedure, mice were euthanized, and various tissues were removed and quickly frozen in liquid nitrogen. Plasma insulin and glucagon concentrations were analyzed with ELISA kits (Crystal Chem. and R&D Systems).

[1] = tested on: hypothalamic NF-κB signaling components; test: Western blots of hypothalamic NF-κB signaling components after third-ventricle TGF-β1; format: in vivo, mice
Procedure: Induction of hypothalamic NF-κB activation by TGF-β: TGF-β is often appreciated for anti-inflammatory feature in immune response, but, depending on physiological context and particularly in pathological conditions, TGF-β can be inflammatory (28)—although it is atypical and many details are still unclear. Here, because NF-κB has been known to atypically mediate hypothalamic inflammation in obesity or aging (12-14,18-20,23-27), it was analyzed if NF-κB signaling components were different in the hypothalamus of mice with third-ventricle injection of TGF-β vs. vehicle. […] First, since IκBα loss is the specific step that immediately liberates cytoplasmic NF-κB for nuclear translocation, and NF-κB subunit RelA in the nucleus undergoes phosphorylation, RelA phosphorylation was measured in mice injected with TGF-β1 or vehicle. […] Second, it was evaluated if TGF-β1-triggered NF-κB activation could be involved in HFD-induced hypothalamic inflammation. By employing heterogeneous Tgfb1 knockout (Tgfb1 +/−) mice, whether haplodeficiency of Tgfb1 in this mouse model could affect the induction of hypothalamic inflammation by HFD feeding was examined To do so, adult Tgfb1+/− mice and littermate WT controls were subjected to HFD feeding for three weeks, and chow feeding was included to provide as dietary control. Indeed, hypothalamic Tgfb1 mRNA in chow-fed Tgfb1+/− mice dropped by ˜50% compared to chow-fed WT (FIG. 4b), which was consistent with the literature (35). […] Using these hypothalamic samples, we examined mRNA levels of a list of inflammation-related molecules including TNFα, IL-6, SOCS3, TLR4, PTP1B, PKCλ and PKCι. […] Therefore, brain TGF-β excess plays a role in inducing diet-induced hypothalamic inflammation.
Thus, while kinase (e.g., IKK)-induced IκBα phosphorylation is a crucial, rapid signaling reaction in classical inflammation, this process is not primarily critical in TGF-β1-induced hypothalamic inflammation.
To further assess this point, it was asked if the effects of brain TGF-β excess could be impaired by ablation of a signaling component, such as toll-like receptor-4 (TLR4) or myeloid differentiation primary response gene 88 (MyD88), because they employ kinase signaling to induce IκBα phosphorylation and thus NF-κB activation. […]
Protein, mRNA and peptide analyses. […] Quantification of Western blots was processed with Image J. Total RNA was extracted from hypothalamic tissue using TRIzol® (Invitrogen), and cDNA was synthesized using M-MLV RT System (Promega). Using SYBR® Green PCR Master Mix (Applied Biosystems), expression levels of target genes were analyzed via PCR amplification and quantification. […] Serum and CSF TGF-β content were measured using TGF-β ELISA kit (R&D Systems).

[2] = third-ventricle injection vs vehicle

In the case of “TGF-β1: transforming growth factor-β1 (Sigma), cytokine dissolved in artificial cerebrospinal fluid for third-ventricle injection”, the “glucose infusion rate, lower than vehicle-injected mice” value (normal C57BL/6 mice; 4 ng, clamp, insulin 4 mU kg^−1 min^−1, on average) is reported as 80%, the “hepatic glucose production vs control” value (normal C57BL/6 mice; basal condition) is reported as “higher” and the “basal blood insulin concentrations” value (normal C57BL/6 mice; basal, vs controls) is reported as “higher”. The “rates of glucose disposal vs vehicle” value (normal C57BL/6 mice; clamp, 4 ng) was “similar”, the “suppression of hepatic glucose production by insulin infusion” value (normal C57BL/6 mice; during clamp) was “failed to do so” and the “blood glucagon concentrations vs controls” value (normal C57BL/6 mice; mouse, in vivo) was “similar”. For the same substance, the “glucose infusion rates vs vehicle-injected mice” value (normal C57BL/6 mice; since the first 20 min of clamp) was “significantly lower”, the “hypothalamic TAK1 phosphorylation” value ([1]; mouse, in vivo) was “did not lead to hypothalamic TAK1 phosphorylation” and the “phosphorylated levels of IκBα” value ([1]; normalized by IκBα protein levels) was “did not change”. For the same substance, the “hypothalamic IκBα protein levels” value [1, 2] was “significant reduction” and the “hypothalamic RelA phosphorylation” value [1, 2] was “significantly increased”.

Reference: US20170114128A1, “USE OF TGF-BETA ANTAGONISTS OF TREAT TYPE-2 DIABETES” (ALBERT EINSTEIN COLLEGE OF MEDICINE, INC., priority 2014, published 2017)
